{"source": "ChEMBL document CHEMBL1201862", "about": "“PubChem BioAssay data set” (2004)", "assay_in_all_cases": "inhibition of tumour cell growth, NCI panel, 48 h", "key": {"[1]": {"test_system": "IGROV-1"}, "[2]": {"test_system": "SR"}, "[3]": {"test_system": "SK-OV-3"}, "[4]": {"test_system": "786-0"}, "[5]": {"test_system": "COLO 205"}, "[6]": {"test_system": "SK-MEL-5"}, "[7]": {"test_system": "CCRF-CEM"}, "[8]": {"test_system": "OVCAR-4"}, "[9]": {"test_system": "HCC 2998"}, "[10]": {"test_system": "MCF7"}, "[11]": {"test_system": "DU-145"}, "[12]": {"test_system": "SNB-19"}, "[13]": {"test_system": "Hs-578T"}, "[14]": {"test_system": "SW-620"}, "[15]": {"test_system": "A498"}, "[16]": {"test_system": "OVCAR-3"}, "[17]": {"test_system": "ACHN"}, "[18]": {"test_system": "MDA-MB-231"}, "[19]": {"test_system": "TK-10"}}, "note": "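Exposure lasted 48 hours, with cells grown in 96-well plates and compounds tested at five concentrations. GI50: concentration for 50% inhibition of growth.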 Calls of active or inactive are those of the source. No stated cut-off is given here; in the data, active = GI50 up to about 1.1 µM and inactive = higher."}
{"smiles": "CN(C)c1ncnc2c1ncn2C1C=CC(COS(N)(=O)=O)C1", "note": "(stereo not drawn)", "values": [{"measurement": "GI50", "setting": "[1]", "result": "> 100 µM (inactive)"}, {"measurement": "GI50", "setting": "[2]", "result": "> 100 µM (inactive)"}, {"measurement": "GI50", "setting": "[3]", "result": "> 100 µM (inactive)"}, {"measurement": "GI50", "setting": "[4]", "result": "> 100 µM (inactive)"}, {"measurement": "GI50", "setting": "[5]", "result": "> 100 µM (inactive)"}, {"measurement": "GI50", "setting": "[6]", "result": "> 100 µM (inactive)"}, {"measurement": "GI50", "setting": "[7]", "result": "> 100 µM (inactive)"}, {"measurement": "GI50", "setting": "[8]", "result": "> 100 µM (inactive)"}, {"measurement": "GI50", "setting": "[9]", "result": "> 100 µM (inactive)"}, {"measurement": "GI50", "setting": "[10]", "result": "> 100 µM (inactive)"}, {"measurement": "GI50", "setting": "[11]", "result": "> 100 µM (inactive)"}, {"measurement": "GI50", "setting": "[12]", "result": "> 100 µM (inactive)"}, {"measurement": "GI50", "setting": "[13]", "result": "44.5 µM (inactive)"}, {"measurement": "GI50", "setting": "[14]", "result": "> 100 µM (inactive)"}, {"measurement": "GI50", "setting": "[15]", "result": "> 100 µM (inactive)"}, {"measurement": "GI50", "setting": "[16]", "result": "> 100 µM (inactive)"}, {"measurement": "GI50", "setting": "[17]", "result": "> 100 µM (inactive)"}]}
{"smiles": "Cc1cc(=O)oc2c(OS(C)(=O)=O)c(OS(C)(=O)=O)ccc12", "values": [{"measurement": "GI50", "setting": "[1]", "result": "> 100 µM (inactive)"}, {"measurement": "GI50", "setting": "[18]", "result": "> 100 µM (inactive)"}, {"measurement": "GI50", "setting": "[2]", "result": "> 100 µM (inactive)"}, {"measurement": "GI50", "setting": "[19]", "result": "> 100 µM (inactive)"}, {"measurement": "GI50", "setting": "[4]", "result": "> 100 µM (inactive)"}, {"measurement": "GI50", "setting": "[5]", "result": "> 100 µM (inactive)"}, {"measurement": "GI50", "setting": "[6]", "result": "> 100 µM (inactive)"}, {"measurement": "GI50", "setting": "[7]", "result": "> 100 µM (inactive)"}, {"measurement": "GI50", "setting": "[8]", "result": "> 100 µM (inactive)"}, {"measurement": "GI50", "setting": "[9]", "result": "> 100 µM (inactive)"}, {"measurement": "GI50", "setting": "[10]", "result": "> 100 µM (inactive)"}, {"measurement": "GI50", "setting": "[12]", "result": "> 100 µM (inactive)"}, {"measurement": "GI50", "setting": "[13]", "result": "> 100 µM (inactive)"}, {"measurement": "GI50", "setting": "[14]", "result": "> 100 µM (inactive)"}, {"measurement": "GI50", "setting": "[15]", "result": "> 100 µM (inactive)"}, {"measurement": "GI50", "setting": "[16]", "result": "> 100 µM (inactive)"}, {"measurement": "GI50", "setting": "[17]", "result": "> 100 µM (inactive)"}]}
{"smiles": "COC(=O)Nc1nc2cc(NS(=O)(=O)c3cccs3)ccc2[nH]1", "values": [{"measurement": "GI50", "setting": "[1]", "result": "10.9 µM (inactive)"}, {"measurement": "GI50", "setting": "[18]", "result": "31 µM (inactive)"}, {"measurement": "GI50", "setting": "[19]", "result": "25.9 µM (inactive)"}, {"measurement": "GI50", "setting": "[3]", "result": "28.4 µM (inactive)"}, {"measurement": "GI50", "setting": "[4]", "result": "34.3 µM (inactive)"}, {"measurement": "GI50", "setting": "[5]", "result": "20.7 µM (inactive)"}, {"measurement": "GI50", "setting": "[6]", "result": "18.6 µM (inactive)"}, {"measurement": "GI50", "setting": "[7]", "result": "34.8 µM (inactive)"}, {"measurement": "GI50", "setting": "[8]", "result": "38.9 µM (inactive)"}, {"measurement": "GI50", "setting": "[10]", "result": "17.8 µM (inactive)"}, {"measurement": "GI50", "setting": "[11]", "result": "47.3 µM (inactive)"}, {"measurement": "GI50", "setting": "[12]", "result": "23.2 µM (inactive)"}, {"measurement": "GI50", "setting": "[13]", "result": "10.4 µM (inactive)"}, {"measurement": "GI50", "setting": "[14]", "result": "20.7 µM (inactive)"}, {"measurement": "GI50", "setting": "[15]", "result": "28 µM (inactive)"}, {"measurement": "GI50", "setting": "[16]", "result": "14.6 µM (inactive)"}, {"measurement": "GI50", "setting": "[17]", "result": "42.8 µM (inactive)"}]}
{"smiles": "CCOC(=O)C1C(C)C2(C#N)C(=N)OC1(C)C2(C#N)C#N", "note": "(stereo not drawn)", "values": [{"measurement": "GI50", "setting": "[1]", "result": "39.2 µM (inactive)"}, {"measurement": "GI50", "setting": "[18]", "result": "> 100 µM (inactive)"}, {"measurement": "GI50", "setting": "[19]", "result": "77.6 µM (inactive)"}, {"measurement": "GI50", "setting": "[3]", "result": "> 100 µM (inactive)"}, {"measurement": "GI50", "setting": "[4]", "result": "66.7 µM (inactive)"}, {"measurement": "GI50", "setting": "[5]", "result": "> 100 µM (inactive)"}, {"measurement": "GI50", "setting": "[6]", "result": "41.4 µM (inactive)"}, {"measurement": "GI50", "setting": "[9]", "result": "> 10 µM (inactive)"}, {"measurement": "GI50", "setting": "[10]", "result": "55.2 µM (inactive)"}, {"measurement": "GI50", "setting": "[11]", "result": "78.5 µM (inactive)"}, {"measurement": "GI50", "setting": "[12]", "result": "79.3 µM (inactive)"}, {"measurement": "GI50", "setting": "[13]", "result": "40.9 µM (inactive)"}, {"measurement": "GI50", "setting": "[14]", "result": "84.7 µM (inactive)"}, {"measurement": "GI50", "setting": "[15]", "result": "> 100 µM (inactive)"}, {"measurement": "GI50", "setting": "[17]", "result": "38.6 µM (inactive)"}]}
{"smiles": "CC(C(O)c1ccccc1)N(C)/N=N/c1nc2c([nH]1)c(=O)n(C)c(=O)n2C", "note": "(stereo not drawn)", "values": [{"measurement": "GI50", "setting": "[1]", "result": "35.2 µM (inactive)"}, {"measurement": "GI50", "setting": "[18]", "result": "92.3 µM (inactive)"}, {"measurement": "GI50", "setting": "[19]", "result": "64.1 µM (inactive)"}, {"measurement": "GI50", "setting": "[3]", "result": "> 100 µM (inactive)"}, {"measurement": "GI50", "setting": "[4]", "result": "74.1 µM (inactive)"}, {"measurement": "GI50", "setting": "[5]", "result": "41.4 µM (inactive)"}, {"measurement": "GI50", "setting": "[6]", "result": "66.8 µM (inactive)"}, {"measurement": "GI50", "setting": "[7]", "result": "47.2 µM (inactive)"}, {"measurement": "GI50", "setting": "[8]", "result": "> 100 µM (inactive)"}, {"measurement": "GI50", "setting": "[9]", "result": "39.9 µM (inactive)"}, {"measurement": "GI50", "setting": "[10]", "result": "26.1 µM (inactive)"}, {"measurement": "GI50", "setting": "[11]", "result": "99.3 µM (inactive)"}, {"measurement": "GI50", "setting": "[12]", "result": "> 100 µM (inactive)"}, {"measurement": "GI50", "setting": "[13]", "result": "> 100 µM (inactive)"}, {"measurement": "GI50", "setting": "[14]", "result": "> 100 µM (inactive)"}, {"measurement": "GI50", "setting": "[16]", "result": "> 100 µM (inactive)"}, {"measurement": "GI50", "setting": "[17]", "result": "36.6 µM (inactive)"}]}
{"smiles": "CCOC(=O)c1cc(-c2ccc(Cl)cc2)c([N+](=O)[O-])n1C", "values": [{"measurement": "GI50", "setting": "[1]", "result": "> 10 µM (inactive)"}, {"measurement": "GI50", "setting": "[18]", "result": "0.08 µM (active)"}, {"measurement": "GI50", "setting": "[2]", "result": "5.08 µM (inactive)"}, {"measurement": "GI50", "setting": "[19]", "result": "> 10 µM (inactive)"}, {"measurement": "GI50", "setting": "[3]", "result": "> 10 µM (inactive)"}, {"measurement": "GI50", "setting": "[4]", "result": "> 10 µM (inactive)"}, {"measurement": "GI50", "setting": "[7]", "result": "> 10 µM (inactive)"}, {"measurement": "GI50", "setting": "[8]", "result": "> 10 µM (inactive)"}, {"measurement": "GI50", "setting": "[9]", "result": "> 10 µM (inactive)"}, {"measurement": "GI50", "setting": "[11]", "result": "> 10 µM (inactive)"}, {"measurement": "GI50", "setting": "[12]", "result": "> 10 µM (inactive)"}, {"measurement": "GI50", "setting": "[13]", "result": "> 10 µM (inactive)"}, {"measurement": "GI50", "setting": "[16]", "result": "> 10 µM (inactive)"}, {"measurement": "GI50", "setting": "[17]", "result": "> 10 µM (inactive)"}]}
{"smiles": "C=CCCCC1CCCNC1=O", "note": "(stereo not drawn)", "values": [{"measurement": "GI50", "setting": "[1]", "result": "> 100 µM (inactive)"}, {"measurement": "GI50", "setting": "[18]", "result": "> 100 µM (inactive)"}, {"measurement": "GI50", "setting": "[19]", "result": "> 100 µM (inactive)"}, {"measurement": "GI50", "setting": "[3]", "result": "> 100 µM (inactive)"}, {"measurement": "GI50", "setting": "[4]", "result": "> 100 µM (inactive)"}, {"measurement": "GI50", "setting": "[6]", "result": "> 100 µM (inactive)"}, {"measurement": "GI50", "setting": "[8]", "result": "> 100 µM (inactive)"}, {"measurement": "GI50", "setting": "[9]", "result": "> 100 µM (inactive)"}, {"measurement": "GI50", "setting": "[10]", "result": "> 100 µM (inactive)"}, {"measurement": "GI50", "setting": "[11]", "result": "> 100 µM (inactive)"}, {"measurement": "GI50", "setting": "[12]", "result": "> 100 µM (inactive)"}, {"measurement": "GI50", "setting": "[13]", "result": "> 100 µM (inactive)"}, {"measurement": "GI50", "setting": "[14]", "result": "> 100 µM (inactive)"}, {"measurement": "GI50", "setting": "[15]", "result": "> 100 µM (inactive)"}, {"measurement": "GI50", "setting": "[16]", "result": "> 100 µM (inactive)"}, {"measurement": "GI50", "setting": "[17]", "result": "> 100 µM (inactive)"}]}
